Here are results for twelve compounds from ChEMBL document CHEMBL1201862, “PubChem BioAssay data set” (2004).

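Each compound was tested at five concentrations against cells in 96-well plates for 48 hours. GI50 marks 50% less growth.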 Active and inactive are the calls of the source. No stated cut-off is given here; in the data, active = GI50 up to about 1.1 µM and inactive = higher. Bounds are passed on as bounds.

Among the test systems are A498; A549; CCRF-CEM; HCC 2998; HCT-15; HOP-62; HOP-92; IGROV-1; NCI-H23; NCI-H460; OVCAR-4; OVCAR-8; RPMI-8226; SF-268; SK-OV-3; SNB-75; SR; T47D; SF-539.
Common to all, as to assay: inhibition of tumour cell growth, NCI panel, 48 h

For `CC1=NN=C(N)NC1=CC(Sc1ccc(Cl)cc1)c1c(O)ccc2ccccc12` (configuration not stated), the GI50 is 18.7 µM (inactive) with A498; 28.9 µM (inactive) in the assay with A549; 4.73 µM (inactive) in the assay with CCRF-CEM; 16.7 µM (inactive) in the assay on HCC 2998; 16.3 µM in the assay with HCT-15; 20.2 µM (inactive) with HOP-62. In addition, the GI50 is 20.3 µM (inactive) in the assay on HOP-92; 13 µM (inactive) in the assay on IGROV-1; 15.1 µM (inactive) in the assay with NCI-H23; 17.4 µM (inactive) with NCI-H460; 16.8 µM (inactive) in the assay with OVCAR-4; 16.7 µM (inactive) in the assay with OVCAR-8. Besides, the GI50 was 13.5 µM (inactive) in the assay with RPMI-8226; 11.3 µM (inactive) in the assay on SF-268; 18.3 µM (inactive) with SK-OV-3; 18.6 µM (inactive) with SNB-75; 17.4 µM (inactive) in the assay on SR; 8.51 µM (inactive) in the assay with T47D.

Regarding `Fc1ccc2c(c1)nc1n2C(c2c(F)cccc2F)SC1` (configuration not stated), the GI50 in the assay on A498 was 71.8 µM (inactive); in the assay on A549, 48.5 µM (inactive); in the assay on HCC 2998, 71.6 µM (inactive); in the assay on HCT-15, 38.3 µM; with HOP-62 it was 66.7 µM (inactive); with HOP-92, 26.2 µM (inactive). Also, the GI50 in the assay on IGROV-1 was 64.9 µM (inactive); in the assay on NCI-H23, 34 µM (inactive); in the assay with NCI-H460, 37 µM (inactive); in the assay on OVCAR-4, 48.2 µM (inactive); in the assay on OVCAR-8, 37.1 µM (inactive); in the assay on RPMI-8226, 78.9 µM (inactive). In addition, the GI50 with SF-268 was 53.2 µM (inactive); in the assay on SF-539 it was > 100 µM (inactive); in the assay on SK-OV-3, 59.2 µM (inactive); in the assay on SNB-75, 28.2 µM (inactive); in the assay with SR, 18.1 µM (inactive); with T47D, 31 µM (inactive).

Take `CCOC(=O)c1sc2nc(SC)nc3c2c1NCN3c1ccc(F)c(F)c1`: the GI50 with A498 is 12.6 µM (inactive); in the assay with A549, 8.04 µM (inactive); in the assay on CCRF-CEM, 16.7 µM (inactive); in the assay with HCC 2998, > 36.1 µM (inactive); in the assay with HCT-15, 12.4 µM; with HOP-62, 12.1 µM (inactive). Besides, the GI50 in the assay with HOP-92 is 18.5 µM (inactive); with IGROV-1, 43.1 µM (inactive); in the assay with NCI-H23 it was 14.6 µM (inactive); in the assay on NCI-H460, 8.63 µM (inactive); with OVCAR-4, 4.76 µM (inactive); in the assay with OVCAR-8 it was 5.27 µM (inactive). Further, the GI50 with RPMI-8226 was 9.93 µM (inactive); with SF-268, 9.84 µM (inactive); in the assay with SF-539, 5.2 µM (inactive); in the assay on SK-OV-3, 19.2 µM (inactive); with SR it was > 21.5 µM (inactive); in the assay on T47D, 29.4 µM (inactive).

Consider `COc1ccc(OC)c([N+](=O)[O-])c1-c1nc2sc(Cl)cn2c1/C=N/N=C(N)N`, for which the GI50 was 14.1 µM (inactive) with A498; 23.2 µM (inactive) in the assay with A549; 30.9 µM (inactive) in the assay on CCRF-CEM; 12.7 µM (inactive) with HCC 2998; 41.2 µM in the assay on HCT-15; 55.8 µM (inactive) in the assay with HOP-62. Also, the GI50 is 10.1 µM (inactive) in the assay with HOP-92; 12.9 µM (inactive) in the assay on IGROV-1; 26.4 µM (inactive) in the assay on NCI-H23; 20.7 µM (inactive) with NCI-H460; 12.2 µM (inactive) with OVCAR-4; 19.2 µM (inactive) in the assay on OVCAR-8. In addition, the GI50 is 26.9 µM (inactive) in the assay with RPMI-8226; 20.8 µM (inactive) in the assay with SF-268; 22.9 µM (inactive) with SF-539; 10.1 µM (inactive) in the assay with SNB-75; 14.2 µM (inactive) with SR; 17.8 µM (inactive) in the assay with T47D.

For `Cc1nn(C(=O)c2ccncc2)c2c1C(c1ccc([N+](=O)[O-])cc1)SC(=N)N2` (configuration not stated), the GI50 with A498 was > 100 µM (inactive); in the assay on A549 it was > 100 µM (inactive); with CCRF-CEM, > 100 µM (inactive); with HCT-15, > 100 µM; with HOP-62, > 100 µM (inactive); in the assay with HOP-92, > 100 µM (inactive). Also, the GI50 in the assay with IGROV-1, with NCI-H23, in the assay with NCI-H460, in the assay on OVCAR-4, with OVCAR-8 and in the assay with RPMI-8226 was > 100 µM (inactive) each time. Further, the GI50 with SF-268, with SF-539, with SK-OV-3, in the assay with SNB-75, with SR and in the assay with T47D was > 100 µM (inactive) each time.

As to `Oc1nc(S)nc2c1CN(CCCN1CCOCC1)CN2`, the GI50 in the assay with A498 was > 100 µM (inactive); in the assay with A549 it was 38.6 µM (inactive); in the assay on HCC 2998, 21.9 µM (inactive); in the assay on HCT-15, 32 µM; in the assay with HOP-62 it was 30.9 µM (inactive); with HOP-92, 37.7 µM (inactive). Also, the GI50 was 40.6 µM (inactive) in the assay on IGROV-1; 22.4 µM (inactive) in the assay on NCI-H23; 25.9 µM (inactive) in the assay with NCI-H460; 38.5 µM (inactive) in the assay on OVCAR-4; 31 µM (inactive) in the assay on OVCAR-8; 26.9 µM (inactive) in the assay with RPMI-8226. Besides, the GI50 in the assay on SF-268 was 23.1 µM (inactive); with SF-539 it was 25.5 µM (inactive); in the assay with SR, 28.4 µM (inactive); in the assay with T47D it was 35.4 µM (inactive).

Turning to `NS(=O)(=O)c1nnc(NS(=O)(=O)c2ccc([N+](=O)[O-])cc2)s1`, the GI50 was > 100 µM (inactive) in the assay on A498; > 100 µM (inactive) in the assay on A549; > 100 µM (inactive) with HCC 2998; > 100 µM with HCT-15; > 100 µM (inactive) in the assay with HOP-62; > 100 µM (inactive) in the assay with HOP-92. In addition, the GI50 in the assay with IGROV-1 is > 100 µM (inactive); in the assay on NCI-H23 it was > 100 µM (inactive); with NCI-H460 it was > 100 µM (inactive); in the assay on OVCAR-4, > 100 µM (inactive); in the assay with OVCAR-8, > 100 µM (inactive); in the assay with RPMI-8226, 21.4 µM (inactive). Further, the GI50 in the assay on SF-268 was > 100 µM (inactive); with SF-539 it was > 100 µM (inactive); in the assay on SK-OV-3, > 100 µM (inactive); in the assay with SNB-75 it was > 100 µM (inactive); with SR it was 32.7 µM (inactive); in the assay with T47D, 34.9 µM (inactive).

As for `CCOC(=O)/C(C#N)=C/N(CC)/N=C/c1ccccc1`, the GI50 in the assay with A498 was > 100 µM (inactive); in the assay with A549 it was > 100 µM (inactive); in the assay with CCRF-CEM, > 100 µM (inactive); in the assay with HCC 2998, > 100 µM (inactive); in the assay on HCT-15, > 100 µM; in the assay with HOP-92, > 100 µM (inactive). Moreover, the GI50 is > 100 µM (inactive) in the assay on IGROV-1; > 100 µM (inactive) in the assay on NCI-H23; > 100 µM (inactive) in the assay on NCI-H460; > 100 µM (inactive) with OVCAR-4; 81.3 µM (inactive) with OVCAR-8; > 100 µM (inactive) with RPMI-8226. In addition, the GI50 is > 100 µM (inactive) in the assay on SF-268; 54.7 µM (inactive) in the assay on SF-539; > 100 µM (inactive) in the assay with SK-OV-3; > 100 µM (inactive) with SNB-75; > 100 µM (inactive) in the assay on SR; > 100 µM (inactive) in the assay with T47D.

With `NC(CCCCNC(=O)OCc1ccccc1)C(=O)NC(CCCCNC(=O)OCc1ccccc1)C(=O)ON1C(=O)CCC1=O` (configuration not stated), the GI50 in the assay with A498 was > 100 µM (inactive); in the assay on A549 it was > 100 µM (inactive); in the assay on CCRF-CEM, > 100 µM (inactive); with HCC 2998, > 100 µM (inactive); in the assay with HCT-15, > 100 µM; in the assay on HOP-62, > 100 µM (inactive). Besides, the GI50 in the assay with HOP-92, in the assay on IGROV-1, in the assay on NCI-H23, with NCI-H460, with OVCAR-8 and in the assay with RPMI-8226 was > 100 µM (inactive) each time. Further, the values for the GI50 in the assay with SNB-75, in the assay with SR and in the assay with T47D were 27.2 µM (inactive), > 100 µM (inactive) and > 100 µM (inactive), respectively.

With `O=S(=O)(c1ccccc1)N1CCCC(c2ccccc2)CC1` (configuration not stated), the GI50 is 49 µM (inactive) with A498; 27.2 µM (inactive) with A549; 33.8 µM (inactive) with CCRF-CEM; 23.9 µM (inactive) with HCC 2998; 46.5 µM in the assay on HCT-15; > 100 µM (inactive) in the assay on HOP-92. The GI50 in the assay on IGROV-1 is > 100 µM (inactive); in the assay on NCI-H23, 27.5 µM (inactive); with NCI-H460, 31.2 µM (inactive); in the assay on OVCAR-4 it was 79.1 µM (inactive); in the assay with OVCAR-8, 37.2 µM (inactive); in the assay with RPMI-8226, 16.4 µM (inactive). Also, the GI50 in the assay with SF-268 was 27.8 µM (inactive); in the assay on SF-539, > 100 µM (inactive); in the assay with SNB-75, 30.8 µM (inactive); in the assay on SR, 16.9 µM (inactive); with T47D it was 44.1 µM (inactive).

As for `Cc1cn(C2CCC(/C=N\O)O2)c(=O)[nH]c1=O` (configuration not stated), the GI50 in the assay on A498 is > 100 µM (inactive); in the assay on A549 it was > 100 µM (inactive); in the assay on CCRF-CEM, > 100 µM (inactive); in the assay with HCC 2998 it was > 100 µM (inactive); with HCT-15, > 100 µM; in the assay on HOP-62, > 100 µM (inactive). Besides, the GI50 with HOP-92, in the assay with IGROV-1, in the assay on NCI-H23, with NCI-H460, in the assay on OVCAR-4 and with OVCAR-8 was > 100 µM (inactive) each time. The GI50 with RPMI-8226, in the assay with SF-539, in the assay with SNB-75, in the assay on SR and with T47D was > 100 µM (inactive) throughout.

As to `Nc1nonc1-c1noc(-c2nonc2N)[n+]1[O-]`, the GI50 with A498 was > 100 µM (inactive); in the assay on A549, 30.3 µM (inactive); with CCRF-CEM, 0.366 µM (active); with HCC 2998 it was > 100 µM (inactive); with HCT-15 it was 19.7 µM; in the assay on HOP-62, > 100 µM (inactive). Moreover, the GI50 in the assay on HOP-92 is 69.8 µM (inactive); in the assay with IGROV-1, > 100 µM (inactive); in the assay with NCI-H23 it was 77.4 µM (inactive); with NCI-H460, 62.7 µM (inactive); in the assay with OVCAR-4, > 100 µM (inactive); with RPMI-8226, 54.6 µM (inactive). In addition, the GI50 is > 100 µM (inactive) in the assay on SF-268, > 100 µM (inactive) with SK-OV-3, 93.8 µM (inactive) with SR and > 10 µM (inactive) in the assay on T47D.
